According to patent US20250368648A1, “MULTI-CYCLIC IRAK AND FLT3 INHIBITING COMPOUNDS AND USES THEREOF” (CHILDREN'S HOSPITAL MEDICAL CENTER, priority 2022, published 2025):

How the values were obtained:
THP1 cells = assay: Combination drug screening, Cell Titer Glo, THP1 cells; settings: THP1 cells; for Excess HSA Score: sum score, 10 × 10 dataset, 48 hours;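 on all read-outs here: luminescence read out in 1536-well plates seeded with 500 THP1 cells per well, each drug spanning a 10-point concentration range in the combination matrix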
Source text: A smaller concentration indicates higher potency to synergize with Venetoclax. […] The numbers in each cell represent the % response (left) or the Delta Bliss score (right) at each given concentration combination.
A smaller concentration indicates higher potency to synergize with azacitidine. […] The numbers in each cell represent the % response (left) or the Delta Bliss score (right) at each given concentration combination.
(§1) This is a cell line that has the FLT3 ITD mutation but also the FLT3 D835Y kinase domain mutation. […] Excess HSA is a measure of synergy vs. additivity or antagonism, wherein a negative Excess HSA value is indicative of synergy.
Briefly, 10 nL of compounds were acoustically dispensed into 1536-well white polystyrene tissue culture-treated plates with an Echo 550 acoustic liquid handler (Labcyte). MOLM14 (D835Y) or THP1 cells were then added to compound-containing plates at a density of 500-cells/well in 5 μL of medium. A 10-point custom concentration range was used for all listed drugs. […] 48h post compound addition, 3 μL of Cell Titer Glo (Promega) were added to each well and plates were incubated at room temperature for 15 minutes with the stainless-steel lid in place. Luminescence readings were taken using a Viewlux imager (PerkinElmer) with a 2 second exposure time per plate.

MOLM14 (D835Y) cells = assay: Combination drug screening, Cell Titer Glo, MOLM14 (D835Y) cells; settings: MOLM14(D835Y) cells; for Excess HSA Score: sum score, listed as compound in combination with Compound 106, 48 hours;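 on all read-outs here: MOLM14 cells with FLT3 ITD plus D835Y, 500 per well in 1536-well plates, 10-point dose ranges, luminescent viability after 48 h, negative Excess HSA indicates synergy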
Procedure: Briefly, 10 nL of the compound shown below was acoustically dispensed into 1536-well white polystyrene tissue culture-treated plates with an Echo 550 acoustic liquid handler (Labcyte). Cells were then added to compound-containing plate at a density of 500-cells/well in 5 μL of medium. A 6-point or 10-point custom concentration range was used for all listed drugs. Plates were incubated for 48 hours at standard incubator conditions covered by a stainless steel gasketed lid to prevent evaporation. 48h post compound addition, 3 μL of Cell Titer Glo (Promega) were added to each well and plates were incubated at room temperature for 15 minutes with the stainless-steel lid in place. Luminescence readings were taken using a Viewlux imager (PerkinElmer) with a 2 second exposure time per plate.
A smaller concentration indicates higher potency to synergize with Venetoclax.
A smaller concentration indicates higher potency to synergize with azacitidine.
as §1

[1] = listed as compound in combination with CG-806 (a FLT3/BTK inhibitor)
[2] = listed as compound in combination with Compound 45a
[3] = listed as compound in combination with Compound 46a
[4] = listed as compound in combination with Compound 47a
[5] = listed as compound in combination with Compound 48a
[6] = listed as compound in combination with Compound 102
[7] = listed as compound in combination with Compound 106
[8] = listed as compound in combination with Gilteritinib (a FLT3/AXL inhibitor)
[9] = listed as compound in combination with PF-06650833 (an IRAK4 selective inhibitor)
[10] = listed as compound in combination with Quizartinib (a FLT3/Kit/PDGFRa inhibitor)
[11] = listed as compound in combination with emavusertib (CA-4948) (a FLT3/IRAK4 inhibitor)
[12] = combination therapy of CG-806 (a FLT3/BTK inhibitor) and the named additional compound, 110 × 10 dataset
[13] = combination therapy of Compound 45a and the named additional compound, 110 × 10 dataset
[14] = combination therapy of Compound 46a and the named additional compound, 110 × 10 dataset
[15] = combination therapy of Compound 47a and the named additional compound, 110 × 10 dataset
[16] = combination therapy of Compound 48a and the named additional compound, 110 × 10 dataset
[17] = combination therapy of Compound 102 and the named additional compound, 10 × 10 dataset
[18] = combination therapy of Gilteritinib (a FLT3/AXL inhibitor) and the named additional compound, 110 × 10 dataset
[19] = combination therapy of PF-06650833 (an IRAK4 selective inhibitor) and the named additional compound, 110 × 10 dataset
[20] = combination therapy of Quizartinib (a FLT3/Kit/PDGFRa inhibitor) and the named additional compound, 110 × 10 dataset
[21] = combination therapy of emavusertib (CA-4948) (a FLT3/IRAK4 inhibitor) and the named additional compound, 110 × 10 dataset

CCN(C(=O)c1cc(F)ccc1Oc1cncnc1N1CC2(CCN(C[C@H]3CC[C@H](NS(=O)(=O)CC)CC3)CC2)C1)C(C)C [SNDX-5613]
Excess HSA Score (THP1 cells; [1]): 321.1921
Excess HSA Score (THP1 cells; [2]): 434.8
Excess HSA Score (THP1 cells; [3]): 262.8
Excess HSA Score (THP1 cells; [4]): 247.1
Excess HSA Score (THP1 cells; [5]): 138.2
Excess HSA Score (THP1 cells; [6]): 156.4
Excess HSA Score (THP1 cells; [7]): 375.4
Excess HSA Score (THP1 cells; [8]): 306.1
Excess HSA Score (THP1 cells; [9]): −120
Excess HSA Score (THP1 cells; [10]): 413.2
Excess HSA Score (THP1 cells; [11]): 468.5
Sum Excess HSA Score (MOLM14 (D835Y) cells; [12]): −1.886
Sum Excess HSA Score (MOLM14 (D835Y) cells; [13]): −24.88
Sum Excess HSA Score (MOLM14 (D835Y) cells; [14]): −263.9
Sum Excess HSA Score (MOLM14 (D835Y) cells; [15]): −358.8
Sum Excess HSA Score (MOLM14 (D835Y) cells; [16]): −804.1
Sum Excess HSA Score (MOLM14 (D835Y) cells; [17]): −748.9985
Sum Excess HSA Score (MOLM14 (D835Y) cells; [18]): 47.75
Sum Excess HSA Score (MOLM14 (D835Y) cells; [19]): −301.3
Sum Excess HSA Score (MOLM14 (D835Y) cells; [20]): −724.1
Sum Excess HSA Score (MOLM14 (D835Y) cells; [21]): −321
Excess HSA Score (MOLM14 (D835Y) cells; 10 × 10 dataset): −210.8

C[C@@H]1OCC2(CCN(c3cnc(Sc4ccnc(N)c4Cl)c(N)n3)CC2)[C@@H]1N [TNO-155]
Excess HSA Score (THP1 cells; [1]): −198.4
Excess HSA Score (THP1 cells; [2]): 64.74
Excess HSA Score (THP1 cells; [3]): 591.7
Excess HSA Score (THP1 cells; [4]): 207
Excess HSA Score (THP1 cells; [5]): −3.87
Excess HSA Score (THP1 cells; [6]): 485.0784
Excess HSA Score (THP1 cells; [7]): −22.86
Excess HSA Score (THP1 cells; [8]): 394.2
Excess HSA Score (THP1 cells; [9]): −194.1
Excess HSA Score (THP1 cells; [10]): 587.7
Excess HSA Score (THP1 cells; [11]): 527.1
Sum Excess HSA Score (MOLM14 (D835Y) cells; [12]): −753.6
Sum Excess HSA Score (MOLM14 (D835Y) cells; [13]): −1028
Sum Excess HSA Score (MOLM14 (D835Y) cells; [14]): −1041.6332
Sum Excess HSA Score (MOLM14 (D835Y) cells; [15]): −1163
Sum Excess HSA Score (MOLM14 (D835Y) cells; [16]): −1024
Sum Excess HSA Score (MOLM14 (D835Y) cells; [17]): −510.7
Sum Excess HSA Score (MOLM14 (D835Y) cells; [18]): −895.7
Sum Excess HSA Score (MOLM14 (D835Y) cells; [19]): −773.7
Sum Excess HSA Score (MOLM14 (D835Y) cells; [20]): −1091
Sum Excess HSA Score (MOLM14 (D835Y) cells; [21]): −470.2
Excess HSA Score (MOLM14 (D835Y) cells; 10 × 10 dataset): −943.9

CC(C)Nc1cc(-c2c[nH]c(C(=O)N[C@H](CO)c3cccc(Cl)c3)c2)c(Cl)cn1 [Ulixertinib, ulixertinib]
Excess HSA Score (THP1 cells; [1]): 518
Excess HSA Score (THP1 cells; [2]): −14.94
Excess HSA Score (THP1 cells; [3]): 260.4
Excess HSA Score (THP1 cells; [4]): −663.3
Excess HSA Score (THP1 cells; [5]): −24.53
Excess HSA Score (THP1 cells; [6]): −301.9
Excess HSA Score (THP1 cells; [7]): −630.1436
Excess HSA Score (THP1 cells; [8]): 690.556
Excess HSA Score (THP1 cells; [9]): 552.8
Excess HSA Score (THP1 cells; [10]): −530.2
Excess HSA Score (THP1 cells; [11]): −230.3
Sum Excess HSA Score (MOLM14 (D835Y) cells; [12]): 258.3
Sum Excess HSA Score (MOLM14 (D835Y) cells; [13]): 554.5
Sum Excess HSA Score (MOLM14 (D835Y) cells; [14]): −208.5
Sum Excess HSA Score (MOLM14 (D835Y) cells; [15]): 112.6
Sum Excess HSA Score (MOLM14 (D835Y) cells; [16]): −576.8
Sum Excess HSA Score (MOLM14 (D835Y) cells; [17]): −768.5
Sum Excess HSA Score (MOLM14 (D835Y) cells; [18]): 29.29
Sum Excess HSA Score (MOLM14 (D835Y) cells; [19]): 548.6
Sum Excess HSA Score (MOLM14 (D835Y) cells; [20]): 1180
Sum Excess HSA Score (MOLM14 (D835Y) cells; [21]): −352.8
Excess HSA Score (MOLM14 (D835Y) cells; 10 × 10 dataset): −71.53

CC1(C)CCC(CN2CCN(c3ccc(C(=O)NS(=O)(=O)c4ccc(NCC5CCOCC5)c([N+](=O)[O-])c4)c(Oc4cnc5[nH]ccc5c4)c3)CC2)=C(c2ccc(Cl)cc2)C1 [Venetoclax (ABT-199), Venetoclax]
Comments (THP1 cells; combination with CG-806): Synergistic (a negative Excess HSA value is indicative of synergy)
Comments (THP1 cells; combination with Compound 45a): Synergistic (a negative Excess HSA value is indicative of synergy)
Comments (THP1 cells; combination with Compound 46a): Synergistic (a negative Excess HSA value is indicative of synergy)
Comments (THP1 cells; combination with Compound 47a): Synergistic (a negative Excess HSA value is indicative of synergy)
Comments (THP1 cells; combination with Compound 102): Synergistic (a negative Excess HSA value is indicative of synergy)
Comments (THP1 cells; combination with Compound 106): Synergistic (a negative Excess HSA value is indicative of synergy)
Comments (THP1 cells; combination with Gilteritinib): Synergistic (a negative Excess HSA value is indicative of synergy)
Excess HSA Score (THP1 cells; [1]): −1431.1287
Excess HSA Score (THP1 cells; [2]): −1070
Excess HSA Score (THP1 cells; [3]): −1405
Excess HSA Score (THP1 cells; [4]): −1419
Excess HSA Score (THP1 cells; [5]): −628.4379
Excess HSA Score (THP1 cells; [6]): −1775
Excess HSA Score (THP1 cells; [7]): −1478
Excess HSA Score (THP1 cells; [8]): −1448
Excess HSA Score (THP1 cells; [9]): −429.3
Excess HSA Score (THP1 cells; [10]): −216
Excess HSA Score (THP1 cells; [11]): −526.5
Sum Excess HSA Score (MOLM14 (D835Y) cells; [12]): −751
Comments (synergistic / antagonistic) (MOLM14 (D835Y) cells; [13]): Synergistic (a negative Excess HSA value is indicative of synergy)
Sum Excess HSA Score (MOLM14 (D835Y) cells; [13]): −1552
Comments (synergistic / antagonistic) (MOLM14 (D835Y) cells; [14]): Synergistic (a negative Excess HSA value is indicative of synergy)
Sum Excess HSA Score (MOLM14 (D835Y) cells; [14]): −1667
Comments (synergistic / antagonistic) (MOLM14 (D835Y) cells; [15]): Synergistic (a negative Excess HSA value is indicative of synergy)
Sum Excess HSA Score (MOLM14 (D835Y) cells; [15]): −1849
Comments (synergistic / antagonistic) (MOLM14 (D835Y) cells; [16]): Synergistic (a negative Excess HSA value is indicative of synergy)
Sum Excess HSA Score (MOLM14 (D835Y) cells; [16]): −1280.6361
Comments (synergistic / antagonistic) (MOLM14 (D835Y) cells; [17]): Synergistic (a negative Excess HSA value is indicative of synergy)
Sum Excess HSA Score (MOLM14 (D835Y) cells; [17]): −966.5606
Comments (synergistic / antagonistic) (MOLM14 (D835Y) cells; [18]): Synergistic (a negative Excess HSA value is indicative of synergy)
Sum Excess HSA Score (MOLM14 (D835Y) cells; [18]): −1406
Comments (synergistic / antagonistic) (MOLM14 (D835Y) cells; [19]): Synergistic (a negative Excess HSA value is indicative of synergy)
Sum Excess HSA Score (MOLM14 (D835Y) cells; [19]): −1578
Comments (synergistic / antagonistic) (MOLM14 (D835Y) cells; [20]): Synergistic (a negative Excess HSA value is indicative of synergy)
Sum Excess HSA Score (MOLM14 (D835Y) cells; [20]): −1656
Comments (synergistic / antagonistic) (MOLM14 (D835Y) cells; [21]): Synergistic (a negative Excess HSA value is indicative of synergy)
Sum Excess HSA Score (MOLM14 (D835Y) cells; [21]): −1038
Comments (MOLM14 (D835Y) cells; combination with Compound 106): Synergistic (a negative Excess HSA value is indicative of synergy)
Excess HSA Score (MOLM14 (D835Y) cells; 10 × 10 dataset): −1540
